Measured values from patent US11702428B2, “Chemical compounds as inhibitors of interleukin-1 activity” (Genentech, Inc., priority 2017, dated 2023).
Where two headings read alike, the source gives them in different places.

Assays:
[1] = biological target: NLRP3 inflammasome (Homo sapiens, UniProt Q96P20); test: NLRP3 inflammasome activation assay in PBMCs (LPS priming, nigericin), IL-1β by ELISA; type: cell-based; parameters: Human peripheral blood mononuclear cells (PBMCs); host or cells: primary human PBMCs from healthy donors
NLRP3 inflammasome, sequence (Q96P20 whole entry): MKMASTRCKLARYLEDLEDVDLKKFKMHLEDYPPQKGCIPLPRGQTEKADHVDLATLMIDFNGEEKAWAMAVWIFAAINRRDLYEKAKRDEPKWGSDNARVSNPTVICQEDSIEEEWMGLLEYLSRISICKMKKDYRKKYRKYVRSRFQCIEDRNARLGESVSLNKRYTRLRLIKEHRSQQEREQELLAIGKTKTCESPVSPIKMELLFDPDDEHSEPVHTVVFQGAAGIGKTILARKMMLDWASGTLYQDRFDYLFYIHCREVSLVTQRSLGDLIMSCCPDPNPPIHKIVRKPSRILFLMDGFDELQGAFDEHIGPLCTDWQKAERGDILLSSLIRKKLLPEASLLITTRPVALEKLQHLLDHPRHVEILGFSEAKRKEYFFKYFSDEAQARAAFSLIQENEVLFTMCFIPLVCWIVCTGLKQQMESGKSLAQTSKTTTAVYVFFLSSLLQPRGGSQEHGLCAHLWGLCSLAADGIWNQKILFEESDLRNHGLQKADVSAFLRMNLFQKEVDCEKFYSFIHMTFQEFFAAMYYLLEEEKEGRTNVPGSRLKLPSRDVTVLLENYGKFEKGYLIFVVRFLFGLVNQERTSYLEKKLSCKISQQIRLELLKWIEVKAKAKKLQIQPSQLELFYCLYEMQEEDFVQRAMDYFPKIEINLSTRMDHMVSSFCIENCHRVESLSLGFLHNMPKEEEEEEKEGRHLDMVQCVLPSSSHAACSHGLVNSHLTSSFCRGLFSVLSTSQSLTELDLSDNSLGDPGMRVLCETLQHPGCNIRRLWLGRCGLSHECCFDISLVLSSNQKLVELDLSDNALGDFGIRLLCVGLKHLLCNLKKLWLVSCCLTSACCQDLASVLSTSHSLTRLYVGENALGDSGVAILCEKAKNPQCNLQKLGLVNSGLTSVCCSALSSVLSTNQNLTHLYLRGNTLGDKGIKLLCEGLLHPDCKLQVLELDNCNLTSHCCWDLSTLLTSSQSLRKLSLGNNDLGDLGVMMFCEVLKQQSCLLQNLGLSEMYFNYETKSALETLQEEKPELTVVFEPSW
Procedure: Some of the following assays were used to determine the inhibitory activity of the compounds on the NLRP3 inflammasome using a common inflammasome activation stimuli-nigericin.
Human peripheral blood mononuclear cells (PBMCs), consisting of lymphocytes (T, B and NK cells), monocytes and dendritic cells, were freshly isolated from human peripheral blood from healthy donors. Cells were obtained through an IRB approved donor program by iXCells Biotechnologies where all the donors were tested for bacterial and viral infections. Cells were purified from peripheral blood using ficoll gradient centrifugation.
Cells were then stimulated with 10 uM Nigericin (Sigma Aldrich; InvivoGen) for 1.5 h. Plates were centrifuged at 1,500 rpm for 3 minutes to pellet cells and supernatant was transferred into new plates for subsequent experiments.
For ELISA assays cells were seeded into 96-well plates. Post study, supernatants were removed and the levels of mature IL-1β, IL-18 and TNFα (Quantikine ELISA, R&D systems) were measured in cell conditioned media by ELISA according to manufacturer's instructions.

[2] = system: LPS and nigericin stimulated cells; test: cells; type: cell-based; conditions: Homo sapiens, read-out: CTG protective IC50
Procedure: Viability of compound treated cells is measured using CellTiter-Glo® assay (Promega, Madison, Wis.) that measures the ATP content of cells which is proportional to the number of live cells within a well. This is a counter-screen to establish that the reduction of IL-1β levels in LPS and nigericin stimulated and compound treated cells is not due to cytotoxicity, but rather through the inhibition of the inflammasome pathway. Compounds inhibiting NRLP3 inflammasome activation ultimately increase the viability of LPS and nigericin stimulated cells by blocking NLRP3 mediated pyroptosis that would otherwise lead to cell lysis.

[3] = LPS, nigericin, read-out: PBMC IL-1β IC50
[4] = LPS and nigericin stimulated cells, CellTiter-Glo
[5] = LPS 100 ng/mL 3 h, nigericin 10 uM 1.5 h, read-out: IC50 IL-1β

Structure (SMILES) | IC50 [1, 3] [µM] | IC50 [2, 4] [µM] | also measured
O=C(Nc1c2c(cc3c1CCC3)CCC2)NS(=O)(=O)c1cnn2c1C(F)CCC2 (centres unmarked) | 0.1 to 1 | < 0.1 | –
O=C(Nc1c2c(cc3c1CCC3)CCC2)NS(=O)(=O)c1cc2n(n1)CCNC2=O | 0.1 to 1 | – | –
CN1CCn2nc(S(=O)(=O)NC(=O)Nc3c4c(cc5c3CCC5)CCC4)cc2C1=O | 1 to 10 | – | –
O=C(Nc1c2c(cc3c1CCC3)CCC2)NS(=O)(=O)c1cnn2c1OCC2 | 0.1 to 1 | < 0.1 | –
NC1COc2c(S(=O)(=O)NC(=O)Nc3c4c(cc5c3CCC5)CCC4)cnn2C1 (centres unmarked) | 0.1 to 1 | < 0.1 | –
O=C(Nc1c2c(cc3c1CCC3)CCC2)NS(=O)(=O)c1cnn2c1C(F)(F)CCC2 | 0.1 to 1 | > 10 | –
CC1(C)COc2c(S(=O)(=O)NC(=O)Nc3c4c(c(Cl)c5c3CCC5)CCC4)cnn2C1 | 0.1 to 1 | – | –
Cc1ccc(S(=O)(=O)N2CC3(COc4c(S(=O)(=O)NC(=O)Nc5c6c(cc7c5CCC7)CCC6)cnn4C3)C2)cc1 | 1 to 10 | 0.1 to 1 | –
O=C(Nc1c2c(cc3c1CCC3)CCC2)NS(=O)(=O)c1cnn2c1OC[C@@H](O)C2 | 0.1 to 1 | < 0.1 | –
CCNC1COc2c(S(=O)(=O)NC(=O)Nc3c4c(cc5c3CCC5)CCC4)cnn2C1 (centres unmarked) | < 0.1 | < 0.1 | –
CN(C)[C@@H]1COc2c(S(=O)(=O)NC(=O)Nc3c4c(cc5c3CCC5)CCC4)cnn2C1 | – | – | IC50 [2]: > 10 µM
CCOC1COc2c(S(=O)(=O)NC(=O)Nc3c4c(cc5c3CCC5)CCC4)cnn2C1 (centres unmarked) | < 0.1 | < 0.1 | –
CCN[C@@H]1COc2c(S(=O)(=O)NC(=O)Nc3c4c(cc5c3CCC5)CCC4)cnn2C1 | 1 to 10 | 1 to 10 | –
CN(CC1COc2c(S(=O)(=O)NC(=O)Nc3c4c(cc5c3CCC5)CCC4)cnn2C1)C(=O)OC(C)(C)C (centres unmarked) | 0.1 to 1 | 0.1 to 1 | –
CNCC1COc2c(S(=O)(=O)NC(=O)Nc3c4c(cc5c3CCC5)CCC4)cnn2C1 (centres unmarked) | 1 to 10 | 1 to 10 | –
CN(C)CC1COc2c(S(=O)(=O)NC(=O)Nc3c4c(cc5c3CCC5)CCC4)cnn2C1 (centres unmarked) | – | – | IC50 [2]: 1 to 10 µM
COC1(C)COc2c(S(=O)(=O)NC(=O)Nc3c4c(cc5c3CCC5)CCC4)cnn2C1 (centres unmarked) | 0.1 to 1 | 0.1 to 1 | –
CC[C@@H]1COc2c(S(=O)(=O)NC(=O)Nc3c4c(cc5c3CCC5)CCC4)cnn2C1 | 0.1 to 1 | 0.1 to 1 | –
CC[C@H]1COc2c(S(=O)(=O)NC(=O)Nc3c4c(cc5c3CCC5)CCC4)cnn2C1 | < 0.1 | < 0.1 | –
CC(C)c1cc(C#N)cc(C(C)C)c1NC(=O)NS(=O)(=O)c1cnn2c1OCCC2 | 0.1 to 1 | < 0.1 | –

Structure (SMILES) | IC50 [1, 3] [µM] | IC50 [2, 4] [µM] | also measured
O=C(Nc1c2c(cc3c1CCC3)CCC2)NS(=O)(=O)c1cnn2c1OCC(N1CC(F)C1)C2 (centres unmarked) | 0.1 to 1 | < 0.1 | –
CN1CCn2ncc(S(=O)(=O)NC(=O)Nc3c4c(cc5c3CCC5)CCC4)c2C1=O | – | – | IC50 [2]: 1 to 10 µM
CC1(O)COc2c(S(=O)(=O)NC(=O)Nc3c4c(cc5c3CCC5)CCC4)cnn2C1 (centres unmarked) | 0.1 to 1 | < 0.1 | –
CO[C@H]1COc2c(S(=O)(=O)NC(=O)Nc3c(C(C)C)cc(Cl)cc3C(C)C)cnn2C1 | 0.1 to 1 | 0.1 to 1 | –
CN[C@@H]1COc2c(S(=O)(=O)NC(=O)Nc3c4c(cc5c3CCC5)CCC4)cnn2C1 | – | – | IC50 [2]: 0.1 to 1 µM
O=C(Nc1c(C2CC2)cc(Cl)cc1C1CC1)NS(=O)(=O)c1cnn2c1OCCC2 | 0.1 to 1 | 0.1 to 1 | –
COc1ccc2cccnc2c1NC(=O)NS(=O)(=O)c1cnn2c1OCCC2 | – | – | PBMC IL-1β IC50 ([1]; LPS, nigericin): No Curve
COC1CN(C2COc3c(S(=O)(=O)NC(=O)Nc4c5c(cc6c4CCC6)CCC5)cnn3C2)C1 (centres unmarked) | – | – | IC50 [2]: < 0.1 µM
O=C(Nc1cc(C2CC2)cc(C2CC2)c1)NS(=O)(=O)c1cnn2c1OCCC2 | 0.1 to 1 | < 0.1 | –
C#CCOC1COc2c(S(=O)(=O)NC(=O)Nc3c4c(cc5c3CCC5)CCC4)cnn2C1 (centres unmarked) | < 0.1 | < 0.1 | –
CC1(C)Cc2cccc(NC(=O)NS(=O)(=O)c3cnn4c3OCCC4)c2O1 | > 10 | – | –
O=C(Nc1c2c(c(F)c3c1CCC3)CCC2)NS(=O)(=O)c1cnn2c1OCCC2 | < 0.1 | < 0.1 | –
COC1CN([C@@H]2COc3c(S(=O)(=O)NC(=O)Nc4c5c(cc6c4CCC6)CCC5)cnn3C2)C1 | – | – | IC50 [2]: < 0.1 µM
Cc1nn2c(c1S(=O)(=O)NC(=O)Nc1c3c(cc4c1CCC4)CCC3)OCCC2 | 0.1 to 1 | < 0.1 | –
O=C(Nc1c(C2CC2)cc(Cl)c2c1CCC2)NS(=O)(=O)c1cnn2c1OCCC2 | 0.1 to 1 | 1 to 10 | –
CC(=O)NCC1COc2c(S(=O)(=O)NC(=O)Nc3c4c(cc5c3CCC5)CCC4)cnn2C1 (centres unmarked) | < 0.1 | < 0.1 | –
CO[C@H]1COc2c(S(=O)(=O)NC(=O)Nc3c4c(c(F)c5c3CCC5)CCC4)cnn2C1 | < 0.1 | – | –
CO[C@H]1COc2c(S(=O)(=O)NC(=O)Nc3c(C(C)C)cc(F)cc3C(C)C)cnn2C1 | < 0.1 | < 0.1 | –
CN[C@H]1COc2c(S(=O)(=O)NC(=O)Nc3c(C(C)C)cc(F)cc3C(C)C)cnn2C1 | < 0.1 | – | –
O=C(Nc1c2c(cc3c1CCC3)CCC2)NS(=O)(=O)c1cnn2c1OCC(CNC(=O)C(F)(F)F)C2 (centres unmarked) | < 0.1 | – | –

Structure (SMILES) | IC50 [1, 3] [µM] | IC50 [2, 4] [µM] | also measured
NCC1COc2c(S(=O)(=O)NC(=O)Nc3c4c(cc5c3CCC5)CCC4)cnn2C1 (centres unmarked) | 0.1 to 1 | – | –
CC(C)c1cc(F)cc(C(C)C)c1NC(=O)NS(=O)(=O)c1cnn2c1OCCC2 | 0.1 to 1 | 0.1 to 1 | –
O=S(=O)(NC(=S)Nc1c2c(cc3c1CCC3)CCC2)c1cnn2c1OCCC2 [drawing 494] | – | – | IC50 [1, 5]: 1 to 10 µM
O=C(Nc1c2c(cc3c1CCC3)CCC2)NS(=O)(=O)c1cnn2c1OCC1(COC1)C2 [drawing 496] | – | – | IC50 [1, 5]: 0.1 to 1 µM
CC(C)c1cccc(C(C)C)c1NC(=O)NS(=O)(=O)c1cnn2c1OCCC2 [drawing 497] | – | – | IC50 [1, 5]: 1 to 10 µM
CC(C)c1cc(Cl)cc(C(C)C)c1NC(=O)NS(=O)(=O)c1cnn2c1OCCC2 [drawing 498] | – | – | IC50 [1, 5]: 0.1 to 1 µM
CC1(C)COc2c(S(=O)(=O)NC(=O)Nc3c4c(cc5c3CCC5)CCC4)cnn2C1 [drawing 499] | – | – | IC50 [1, 5]: < 0.1 µM
O=C(Nc1c2c(cc3c1CCC3)CCC2)NS(=O)(=O)c1cnn2c1OCC(O)C2 (centres unmarked) [drawing 500] | – | – | IC50 [1, 5]: < 0.1 µM
O=C(Nc1c2c(cc3c1CCC3)CCC2)NS(=O)(=O)c1cnn2c1OCCCC2 [drawing 501] | – | – | IC50 [1, 5]: 0.1 to 1 µM
CC1CCOc2c(S(=O)(=O)NC(=O)Nc3c4c(cc5c3CCC5)CCC4)cnn21 (centres unmarked) [drawing 502] | – | – | IC50 [1, 5]: 0.1 to 1 µM
O=C(Nc1c2c(cc3c1CCC3)CCC2)NS(=O)(=O)c1cnn2c1OCC(F)C2 (centres unmarked) [drawing 503] | – | – | IC50 [1, 5]: 0.1 to 1 µM
COC1COc2c(S(=O)(=O)NC(=O)Nc3c4c(cc5c3CCC5)CCC4)cnn2C1 (centres unmarked) [drawing 504] | – | – | IC50 [1, 5]: < 0.1 µM
CC1CCn2ncc(S(=O)(=O)NC(=O)Nc3c4c(cc5c3CCC5)CCC4)c2O1 (centres unmarked) [drawing 505] | – | – | IC50 [1, 5]: < 0.1 µM
O=C(Nc1c2c(c(Cl)c3c1CCC3)CCC2)NS(=O)(=O)c1cnn2c1OCCC2 [drawing 506] | – | – | IC50 [1, 5]: < 0.1 µM
O=C(Nc1c2c(cc3c1CCC3)CCC2)NS(=O)(=O)c1cnn2c1OCC1(COC1)C2 [drawing 510] | 0.1 to 1 | – | –
CC(C)c1cccc(C(C)C)c1NC(=O)NS(=O)(=O)c1cnn2c1OCCC2 [drawing 511] | 1 to 10 | – | –
CC(C)c1cc(Cl)cc(C(C)C)c1NC(=O)NS(=O)(=O)c1cnn2c1OCCC2 [drawing 512] | 0.1 to 1 | – | –
O=C(Nc1c2c(c(Cl)c3c1CCC3)CCC2)NS(=O)(=O)c1cnn2c1OCCC2 [drawing 520] | < 0.1 | – | –
COC1CN([C@H]2COc3c(S(=O)(=O)NC(=O)Nc4c5c(cc6c4CCC6)CCC5)cnn3C2)C1 [drawing 580] | – | – | IC50 [2]: < 0.1 µM
